Values quoted from earlier work in patent publication US20200188326A1, “COMPOSITIONS AND METHODS OF TREATMENT FOR MVID AND RELATED DISEASES” (Vanessa Research, Inc., priority 2015, published 2020).

Test system: SLC26A3 exchanger
Details: in the intestine

## Vitamin A
  upregulation of the expression of SLC26A3 exchanger: up to 4 fold
